Measurements published in US7824698B2, “Lyophilized formulations of Salinosporamide A” (Nereus Pharmaceuticals, Inc., priority 2007, dated 2010).
Values after ≈ are worked out from the molar mass of the structure shown.

Key:
[1] = Solubility and stability in tert-butanol and Kollidon-TBA vehicles by HPLC; assay type: physicochemical
Protocol: Salinosporamide A solubility was determined in 100% tert-butanol (TBA) and in TBA containing 3% (w/v) Kollidon 12 PF and 3% (w/v) Kollidon 17 PF, respectively. Both Kollidons can dissolve in TBA at approximately 4% (w/v). 3% Kollidon can serve as the bulking agent to support a lyophilization preparation. Salinosporamide A was added and saturated in the vehicles at ambient room temperature overnight. Salinosporamide A solutions were filtered and analyzed by HPLC to determine the solubility.

[2] = Salinosporamide A in-situ phase solubility and stability in H2O-TBA; assay type: physicochemical; settings: for HPLC Assay (% Purity): room temp.
Protocol: Salinosporamide A in-situ phase solubility and stability were determined in 10, 20 and 30% H2O-TBA (v/v) solutions. Salinosporamide A was prepared at 2 mg/mL in TBA as a stock solution. HPLC water was spiked into the Salinosporamide A solution aliquot to make up the equivalent 10, 20 and 30% H2O-TBA solutions at room temperature. Each drug solution was mixed and immediately filtered. The filtrate was collected as time zero sample and analyzed by HPLC at real time to avoid drug degradation. The filtrate was subsequently sampled and filtered at 4, 24 and 48 hr to monitor drug stability at ambient room temperature.

[3] = Chemical stability of the API

## C[C@@]12OC(=O)[C@]1([C@@H](O)[C@@H]1C=CCCC1)NC(=O)[C@@H]2CCCl [Salinosporamide A]
[1]; 3% Kollidon 12 PF-TBA
  solubility: 4900 µg/mL (≈ 15.6 mM)
[1]; 3% Kollidon 12 PF-TBA and 3% Kollidon 17 PF-TBA, room temperature overnight
  stability in solution: stable
[1]; 3% Kollidon 17 PF-TBA
  solubility: 4200 µg/mL (≈ 13.4 mM)
[1]; 100% TBA, ambient room temperature
  solubility: 2000 µg/mL (≈ 6.37 mM)
[1]; 100% TBA, ambient room temperature overnight
  stability in solution: stable
[2]; 1 mg/mL in 10-30% H2O-TBA co-solvent systems, room temperature
  bulk solution stability: stable
[2]; 10% H2O-TBA, 0 hr
  HPLC Assay (% Purity): 100.0%
[2]; 10% H2O-TBA, 4 hr
  HPLC Assay (% Purity): 99.5%
[2]; 10% H2O-TBA, 24 hr
  HPLC Assay (% Purity): 99.8%
[2]; 10% H2O-TBA, 48 hr
  HPLC Assay (% Purity): 99.7%
[2]; 20% H2O-TBA, 0 hr
  HPLC Assay (% Purity): 100.0%
[2]; 20% H2O-TBA, 4 hr
  HPLC Assay (% Purity): 99.8%
[2]; 20% H2O-TBA, 24 hr
  HPLC Assay (% Purity): 99.8%
[2]; 20% H2O-TBA, 48 hr
  HPLC Assay (% Purity): 99.7%
[2]; 30% H2O-TBA, 0 hr
  HPLC Assay (% Purity): 100.0%
[2]; 30% H2O-TBA, 4 hr
  HPLC Assay (% Purity): 99.8%
[2]; 30% H2O-TBA, 24 hr
  HPLC Assay (% Purity): 99.5%
[2]; 30% H2O-TBA, 48 hr
  HPLC Assay (% Purity): 99.3%
[3]; neutral and basic pH values
  stability in aqueous solution: labile
[3]; stored at −20° C. desiccated
  time API is stable: at least 12 months
